# Test results: ChEMBL document CHEMBL1833945, “Synthesis and anticonvulsant activity of new N-Mannich bases derived from 5-cyclopropyl-5-phenyl- and 5-cyclopropyl-5-(4-chlorophenyl)-imidazolidine-2,4-diones” (Bioorg Med Chem, 2011)
# Active and inactive are the calls of the source. No cut-off for these calls is given here.
# Test system: Mus musculus
# Assay: Anticonvulsant activity in CF1 albino mouse assessed as protection against electrically-induced seizure at 100 mg/kg, ip after 0.5 hrs by 6Hz psychomotor seizure test
# Format: functional, organism-based
# Design: dose 100 mg/kg
# Conditions: not given
row,SMILES,Activity
1,O=C1NC(=O)C(c2ccc(Cl)cc2)(C2CC2)N1 (configuration not stated),inactive

# Test system: Mus musculus
# Assay: Neurotoxicity in ip dosed CF1 albino mouse assessed as minimum dose required to cause impair in motor coordination after 4 hrs by rotarod test
# Format: toxicity, organism-based
# Conditions: in vivo
row,SMILES,MTC
1,O=C(OCc1ccccc1)N1CCN(CN2C(=O)NC(c3ccc(Cl)cc3)(C3CC3)C2=O)CC1 (configuration not stated),300 mg/kg
2,O=C1NC(=O)C(c2ccc(Cl)cc2)(C2CC2)N1 (configuration not stated),300 mg/kg
3,O=C1NC(c2ccccc2)(C2CC2)C(=O)N1CN1CCN(CCc2ccccc2)CC1 (configuration not stated),300 mg/kg
4,O=C1NC(=O)C(c2ccccc2)(c2ccccc2)N1 [PHENYTOIN],100 mg/kg

# Test system: not listed separately
# Assay: Lipophilicity, log P of compound
# Format: physicochemical
# Conditions: octanol/water
row,logP,SMILES
1,3.65,O=C(OCc1ccccc1)N1CCN(CN2C(=O)NC(c3ccc(Cl)cc3)(C3CC3)C2=O)CC1 (configuration not stated)
2,2.63,O=C1NC(=O)C(c2ccc(Cl)cc2)(C2CC2)N1 (configuration not stated)
3,2.98,O=C1NC(c2ccccc2)(C2CC2)C(=O)N1CN1CCN(CCc2ccccc2)CC1 (configuration not stated)

# Test system: Rattus norvegicus
# Assay: Anticonvulsant activity in po dosed Sprague-Dawley albino rat assessed as protection against subcutaneous pentylenetetrazole-induced seizures
# Format: functional
# Conditions: not given
row,SMILES,ED50
1,O=C1NC(=O)C(c2ccc(Cl)cc2)(C2CC2)N1 (configuration not stated),85 mg/kg
2,O=C1NC(=O)C(c2ccccc2)(c2ccccc2)N1 [PHENYTOIN],> 500 mg/kg

# Test system: Mus musculus
# Assay: Anticonvulsant activity in ip dosed CF1 albino mouse assessed as protection against maximal electroshock-induced seizures after 0.5 hrs
# Format: functional
# Conditions: read-out: MED
row,SMILES,minimal effective dose
1,O=C1NC(=O)C(c2ccccc2)(c2ccccc2)N1 [PHENYTOIN],30 mg/kg

# Test system: not listed separately
# Assay: Neurotoxicity in oral dosed Sprague-Dawley albino rat assessed as motor impairment by rotarod test
# Format: toxicity, organism-based
# Conditions: in vivo
row,SMILES,TD50
1,O=C1NC(=O)C(c2ccc(Cl)cc2)(C2CC2)N1 (configuration not stated),> 135 mg/kg
2,O=C1NC(c2ccccc2)(C2CC2)C(=O)N1CN1CCN(CCc2ccccc2)CC1 (configuration not stated),> 100 mg/kg
3,O=C1NC(=O)C(c2ccccc2)(c2ccccc2)N1 [PHENYTOIN],> 1000 mg/kg

# Test system: Mus musculus
# Assay: Anticonvulsant activity in ip dosed CF1 albino mouse assessed as protection against subcutaneous pentylenetetrazole-induced seizures after 4 hrs
# Format: functional
# Conditions: read-out: MED
row,SMILES,minimal effective dose
1,O=C1NC(=O)C(c2ccc(Cl)cc2)(C2CC2)N1 (configuration not stated),30 mg/kg

# Test system: Mus musculus
# Assay: Anticonvulsant activity in ip dosed CF1 albino mouse assessed as protection against maximal electroshock-induced seizures after 4 hrs
# Format: functional
# Conditions: read-out: MED
row,SMILES,minimal effective dose
1,O=C(OCc1ccccc1)N1CCN(CN2C(=O)NC(c3ccc(Cl)cc3)(C3CC3)C2=O)CC1 (configuration not stated),100 mg/kg
2,O=C1NC(=O)C(c2ccc(Cl)cc2)(C2CC2)N1 (configuration not stated),300 mg/kg
3,O=C1NC(c2ccccc2)(C2CC2)C(=O)N1CN1CCN(CCc2ccccc2)CC1 (configuration not stated),30 mg/kg
4,O=C1NC(=O)C(c2ccccc2)(c2ccccc2)N1 [PHENYTOIN],30 mg/kg

# Test system: Mus musculus
# Assay: Neurotoxicity in ip dosed CF1 albino mouse assessed as minimum dose required to cause impair in motor coordination after 0.5 hrs by rotarod test
# Format: toxicity, organism-based
# Conditions: in vivo
row,SMILES,MTC
1,O=C(OCc1ccccc1)N1CCN(CN2C(=O)NC(c3ccc(Cl)cc3)(C3CC3)C2=O)CC1 (configuration not stated),300 mg/kg
2,O=C1NC(=O)C(c2ccccc2)(c2ccccc2)N1 [PHENYTOIN],100 mg/kg

# Test system: Rattus norvegicus
# Assay: Neurotoxicity in Sprague-Dawley albino rat assessed as motor impairment at 30 mg/kg, po after 1 hrs by rotarod test
# Format: toxicity, organism-based
# Design: dose 30 mg/kg, route oral
# Conditions: in vivo
row,SMILES,Activity
1,O=C1NC(c2ccccc2)(C2CC2)C(=O)N1CN1CCN(CCc2ccccc2)CC1 (configuration not stated),Non-toxic
2,O=C1NC(=O)C(c2ccccc2)(c2ccccc2)N1 [PHENYTOIN],Non-toxic

# Test system: Rattus norvegicus
# Assay: Anticonvulsant activity in po dosed Sprague-Dawley albino rat assessed as protection against maximal electroshock-induced seizures
# Format: functional
# Conditions: not given
row,SMILES,ED50
1,O=C1NC(c2ccccc2)(C2CC2)C(=O)N1CN1CCN(CCc2ccccc2)CC1 (configuration not stated),17.1 mg/kg

# Test system: Mus musculus
# Assay: Toxicity in subcutaneous pentylenetetrazole-induced CF1 albino mouse assessed as myoclonic jerks at 300 mg/kg, ip after 4 hrs
# Format: organism-based
# Design: dose 300 mg/kg
# Conditions: in vivo, sc
row,SMILES,Activity
1,O=C1NC(c2ccccc2)(C2CC2)C(=O)N1CN1CCN(CCc2ccccc2)CC1 (configuration not stated),Toxic

# Test system: Mus musculus
# Assay: Anticonvulsant activity in CF1 albino mouse assessed as protection against maximal electroshock-induced seizures at 300 mg/kg, ip after 0.5 hrs
# Format: functional, organism-based
# Design: dose 300 mg/kg
# Conditions: not given
row,SMILES,Activity
1,O=C(OCc1ccccc1)N1CCN(CN2C(=O)NC(c3ccc(Cl)cc3)(C3CC3)C2=O)CC1 (configuration not stated),inactive
2,O=C1NC(=O)C(c2ccc(Cl)cc2)(C2CC2)N1 (configuration not stated),inactive
3,O=C1NC(c2ccccc2)(C2CC2)C(=O)N1CN1CCN(CCc2ccccc2)CC1 (configuration not stated),inactive

# Test system: Rattus norvegicus
# Assay: Neurotoxicity in Sprague-Dawley albino rat assessed as motor impairment at 30 mg/kg, po after 2 hrs by rotarod test
# Format: toxicity, organism-based
# Design: dose 30 mg/kg, route oral
# Conditions: in vivo
row,SMILES,Activity
1,O=C1NC(c2ccccc2)(C2CC2)C(=O)N1CN1CCN(CCc2ccccc2)CC1 (configuration not stated),Non-toxic
2,O=C1NC(=O)C(c2ccccc2)(c2ccccc2)N1 [PHENYTOIN],Non-toxic

# Test system: Rattus norvegicus
# Assay: Neurotoxicity in Sprague-Dawley albino rat assessed as motor impairment at 50 mg/kg, po after 4 hrs by rotarod test
# Format: toxicity, organism-based
# Design: dose 50 mg/kg, route oral
# Conditions: in vivo
row,SMILES,Activity
1,O=C1NC(=O)C(c2ccc(Cl)cc2)(C2CC2)N1 (configuration not stated),Non-toxic

# Test system: Mus musculus
# Assay: Neurotoxicity in CF1 albino mouse assessed as impair in motor coordination at 300 mg/kg, ip after 0.5 hrs by rotarod test
# Format: toxicity, organism-based
# Design: dose 300 mg/kg, route intraperitoneal
# Conditions: in vivo
row,SMILES,Activity
1,O=C1NC(=O)C(c2ccc(Cl)cc2)(C2CC2)N1 (configuration not stated),Non-toxic
2,O=C1NC(c2ccccc2)(C2CC2)C(=O)N1CN1CCN(CCc2ccccc2)CC1 (configuration not stated),Non-toxic

# Test system: Rattus norvegicus
# Assay: Neurotoxicity in Sprague-Dawley albino rat assessed as motor impairment at 50 mg/kg, po after 2 hrs by rotarod test
# Format: toxicity, organism-based
# Design: dose 50 mg/kg, route oral
# Conditions: in vivo
row,SMILES,Activity
1,O=C1NC(=O)C(c2ccc(Cl)cc2)(C2CC2)N1 (configuration not stated),Non-toxic

# Test system: Mus musculus
# Assay: Anticonvulsant activity in CF1 albino mouse assessed as protection against electrically-induced seizure at 100 mg/kg, ip after 0.25 hrs by 6Hz psychomotor seizure test
# Format: functional, organism-based
# Design: dose 100 mg/kg
# Conditions: not given
row,SMILES,Activity
1,O=C1NC(=O)C(c2ccc(Cl)cc2)(C2CC2)N1 (configuration not stated),inactive

# Organism: Rattus norvegicus
# Assay: Protective index, ratio of TD50 for neurotoxicity in Sprague-Dawley albino rat to ED50 for inhibition of maximal electroshock-induced seizures in Sprague-Dawley albino rat
# Format: functional
# Conditions: not given
row,SMILES,PI
1,O=C1NC(c2ccccc2)(C2CC2)C(=O)N1CN1CCN(CCc2ccccc2)CC1 (configuration not stated),>5.86
2,O=C1NC(=O)C(c2ccccc2)(c2ccccc2)N1 [PHENYTOIN],>35.58

# Test system: Rattus norvegicus
# Assay: Anticonvulsant activity in Sprague-Dawley albino rat assessed as protection against maximal electroshock-induced seizures at 30 mg/kg, po after 4 hrs
# Format: functional, organism-based
# Design: dose 30 mg/kg
# Conditions: not given
row,SMILES,Activity
1,O=C1NC(c2ccccc2)(C2CC2)C(=O)N1CN1CCN(CCc2ccccc2)CC1 (configuration not stated),Active

# Test system: Mus musculus
# Assay: Anticonvulsant activity in CF1 albino mouse assessed as protection against subcutaneous pentylenetetrazole-induced seizures at 300 mg/kg, […] after 4 hrs
# Format: functional, organism-based
# Design: dose 300 mg/kg
# Conditions: not given
row,SMILES,Activity
1,O=C(OCc1ccccc1)N1CCN(CN2C(=O)NC(c3ccc(Cl)cc3)(C3CC3)C2=O)CC1 (configuration not stated),inactive
2,O=C1NC(=O)C(c2ccccc2)(c2ccccc2)N1 [PHENYTOIN],inactive

# Test system: Mus musculus
# Assay: Anticonvulsant activity in ip dosed CF1 albino mouse assessed as protection against subcutaneous pentylenetetrazole-induced seizures after 0.5 hrs
# Format: functional
# Conditions: read-out: MED
row,SMILES,minimal effective dose
1,O=C1NC(=O)C(c2ccc(Cl)cc2)(C2CC2)N1 (configuration not stated),300 mg/kg

# Test system: Rattus norvegicus
# Assay: Neurotoxicity in Sprague-Dawley albino rat assessed as motor impairment at 30 mg/kg, po after 0.25 hrs by rotarod test
# Format: toxicity, organism-based
# Design: dose 30 mg/kg, route oral
# Conditions: in vivo
row,SMILES,Activity
1,O=C1NC(c2ccccc2)(C2CC2)C(=O)N1CN1CCN(CCc2ccccc2)CC1 (configuration not stated),Non-toxic
2,O=C1NC(=O)C(c2ccccc2)(c2ccccc2)N1 [PHENYTOIN],Non-toxic

# Test system: Rattus norvegicus
# Assay: Neurotoxicity in Sprague-Dawley albino rat assessed as motor impairment at 50 mg/kg, po after 0.5 hrs by rotarod test
# Format: toxicity, organism-based
# Design: dose 50 mg/kg, route oral
# Conditions: in vivo
row,SMILES,Activity
1,O=C1NC(=O)C(c2ccc(Cl)cc2)(C2CC2)N1 (configuration not stated),Non-toxic

# Test system: Rattus norvegicus
# Assay: Anticonvulsant activity in Sprague-Dawley albino rat assessed as protection against subcutaneous pentylenetetrazole-induced seizures at 50 mg/kg, po after 0.25 hrs
# Format: functional, organism-based
# Design: dose 50 mg/kg
# Conditions: not given
row,SMILES,Activity
1,O=C1NC(=O)C(c2ccc(Cl)cc2)(C2CC2)N1 (configuration not stated),inactive

# Test system: Rattus norvegicus
# Assay: Anticonvulsant activity in Sprague-Dawley albino rat assessed as protection against maximal electroshock-induced seizures at 30 mg/kg, po after 0.5 hrs
# Format: functional, organism-based
# Design: dose 30 mg/kg
# Conditions: not given
row,SMILES,Activity
1,O=C1NC(c2ccccc2)(C2CC2)C(=O)N1CN1CCN(CCc2ccccc2)CC1 (configuration not stated),inactive
2,O=C1NC(=O)C(c2ccccc2)(c2ccccc2)N1 [PHENYTOIN],Active

# Test system: Rattus norvegicus
# Assay: Neurotoxicity in Sprague-Dawley albino rat assessed as motor impairment at 50 mg/kg, po after 1 hrs by rotarod test
# Format: toxicity, organism-based
# Design: dose 50 mg/kg, route oral
# Conditions: in vivo
row,SMILES,Activity
1,O=C1NC(=O)C(c2ccc(Cl)cc2)(C2CC2)N1 (configuration not stated),Non-toxic

# Test system: Rattus norvegicus
# Assay: Anticonvulsant activity in po dosed Sprague-Dawley albino rat assessed as time to peak effect
# Format: functional
# Conditions: not given
row,SMILES,Time
1,O=C1NC(=O)C(c2ccc(Cl)cc2)(C2CC2)N1 (configuration not stated),2 h
2,O=C1NC(c2ccccc2)(C2CC2)C(=O)N1CN1CCN(CCc2ccccc2)CC1 (configuration not stated),4 h
3,O=C1NC(=O)C(c2ccccc2)(c2ccccc2)N1 [PHENYTOIN],1 h

# Test system: Rattus norvegicus
# Assay: Neurotoxicity in Sprague-Dawley albino rat assessed as motor impairment at 30 mg/kg, po after 4 hrs by rotarod test
# Format: toxicity, organism-based
# Design: dose 30 mg/kg, route oral
# Conditions: in vivo
row,SMILES,Activity
1,O=C1NC(c2ccccc2)(C2CC2)C(=O)N1CN1CCN(CCc2ccccc2)CC1 (configuration not stated),Non-toxic
2,O=C1NC(=O)C(c2ccccc2)(c2ccccc2)N1 [PHENYTOIN],Non-toxic

# Test system: Rattus norvegicus
# Assay: Neurotoxicity in Sprague-Dawley albino rat assessed as motor impairment at 30 mg/kg, po after 0.5 hrs by rotarod test
# Format: toxicity, organism-based
# Design: dose 30 mg/kg, route oral
# Conditions: in vivo
row,SMILES,Activity
1,O=C1NC(c2ccccc2)(C2CC2)C(=O)N1CN1CCN(CCc2ccccc2)CC1 (configuration not stated),Non-toxic
2,O=C1NC(=O)C(c2ccccc2)(c2ccccc2)N1 [PHENYTOIN],Non-toxic

# Test system: Rattus norvegicus
# Assay: Anticonvulsant activity in Sprague-Dawley albino rat assessed as protection against maximal electroshock-induced seizures at 30 mg/kg, po after 0.25 hrs
# Format: functional, organism-based
# Design: dose 30 mg/kg
# Conditions: not given
row,SMILES,Activity
1,O=C1NC(c2ccccc2)(C2CC2)C(=O)N1CN1CCN(CCc2ccccc2)CC1 (configuration not stated),inactive

# Test system: Rattus norvegicus
# Assay: Neurotoxicity in Sprague-Dawley albino rat assessed as motor impairment at 50 mg/kg, po after 0.25 hrs by rotarod test
# Format: toxicity, organism-based
# Design: dose 50 mg/kg, route oral
# Conditions: in vivo
row,SMILES,Activity
1,O=C1NC(=O)C(c2ccc(Cl)cc2)(C2CC2)N1 (configuration not stated),Non-toxic
